In patent publication US8669251B2, “8-fluorophthalazin-1(2H)-one compounds” (Genentech, Inc., priority 2011, dated 2014):

system: production of CD69 by B lymphocytes in human whole blood; test: CD69 Whole Blood Assay (CD69 Hu Blood FACS); format: cell-based; settings: human whole blood activated with goat F(ab')2 anti-human IgM, 20 hours; CD69 on CD20 positive cells by FACS; Table 1
Text: A CD69 Whole Blood Assay can be conducted on Formula I compounds to determine the ability of compounds to inhibit the production of CD69 by B lymphocytes in human whole blood activated by crosslinking surface IgM with goat F(ab′)2 anti-human IgM (Example 907). CD69 is a type II C-type lectin involved in lymphocyte migration and cytokine secretion. CD69 expression represents one of the earliest available indicators of leukocyte activation and its rapid induction occurs through transcriptional activation (Vazquez et al (2009) Jour. of Immunology Published Oct. 19, 2009, doi:10.4049/jimmunol.0900839). Concentration-dependent inhibition of antigen receptor stimulation by selective Btk inhibitors induces cell surface expression of the lymphocyte activation marker CD69 (Honigberg et al (2010) Proc. Natl. Acad. Sci. 107(29):13075-13080). Thus, CD69 inhibition by selective Btk inhibitors may be correlated with therapeutic efficacy of certain B-cell disorders.
Human blood is obtained from healthy volunteers, with the following restrictions: 1 week drug-free, non-smokers. Blood (approximately 20 mls to test 8 compounds) is collected by venipuncture into Vacutainer® (Becton, Dickinson and Co.) tubes with sodium heparin.
Solutions of Formula I and II compounds at 10 mM in DMSO are diluted 1:10 in 100% DMSO, then are diluted by three-fold serial dilutions in 100% DMSO for a ten point dose-response curve. The compounds are further diluted 1:10 in PBS and then an aliquot of 5.5 μl of each compound is added in duplicate to a 2 ml 96-well plate; 5.5 μl of 10% DMSO in PBS is added as control and no-stimulus wells. Human whole blood —HWB (100 μl) is added to each well. After mixing the plates are incubated at 37° C., 5% CO2, 100% humidity for 30 minutes. Goat F(ab′)2 anti-human IgM (10 μl of a 500 μg/ml solution, 50 μg/ml final) is added to each well (except the no-stimulus wells) with mixing and the plates are incubated for an additional 20 hours. At the end of the 20 hour incubation, samples are incubated with fluorescent labeled antibodies for 30 minutes, at 37° C., 5% CO2, 100% humidity. Include induced control, unstained and single stains for compensation adjustments and initial voltage settings. Samples are then lysed with PharM Lyse™ (BD Biosciences Pharmingen) according to the manufacturer's instructions. Samples are then transferred to a 96 well plate suitable to be run on the BD Biosciences HTS 96 well system on the LSRII machine. Data acquired and Mean Fluorescence Intensity values were obtained using BD Biosciences DIVA Software. Results are initially analyzed by FACS analysis software (Flow Jo). […] The inhibitory concentration (IC50, IC70, IC90) values are calculated by Prism version 5, using a nonlinear regression curve fit.

Structure (SMILES)	CD69 Hu Blood FACS (IC70) [nM]
C[C@H]1CN(C2COC2)CCN1c1ccc(Nc2cc(-c3ccnc(-n4ncc5cc(C(C)(C)C)cc(F)c5c4=O)c3CO)cn(C)c2=O)nc1 [Compound 105, (S)-6-tert-butyl-8-fluoro-2-(3-(hydroxymethyl)-4-(1-methyl-5-(5-(2-methyl-4-(oxetan-3-yl)piperazin-1-yl)pyridin-2-ylamino)-6-oxo-1,6-dihydropyridin-3-yl)pyridin-2-yl)phthalazin-1(2H)-one]	6
CC[C@H]1CN(C2COC2)CCN1c1ccc(Nc2cc(-c3ccnc(-n4ncc5cc(C(C)(C)C)cc(F)c5c4=O)c3CO)cn(C)c2=O)nc1 [Compound 112, (S)-6-tert-butyl-2-(4-(5-(5-(2-ethyl-4-(oxetan-3-yl)piperazin-1-yl)pyridin-2-ylamino)-1-methyl-6-oxo-1,6-dihydropyridin-3-yl)-3-(hydroxymethyl)pyridin-2-yl)-8-fluorophthalazin-1(2H)-one]	32.9
CC[C@H]1CN(C2COC2)CCN1c1ccc(Nc2cc(-c3cc(F)cc(-n4ncc5cc(C(C)(C)C)cc(F)c5c4=O)c3CO)cn(C)c2=O)nc1 [Compound 111, (S)-6-tert-butyl-2-(3-(5-(5-(2-ethyl-4-(oxetan-3-yl)piperazin-1-yl)pyridin-2-ylamino)-1-methyl-6-oxo-1,6-dihydropyridin-3-yl)-5-fluoro-2-(hydroxymethyl)phenyl)-8-fluorophthalazin-1(2H)-one]	37.4
C[C@H]1CN(C2COC2)CCN1c1ccc(Nc2cc(-c3cc(F)cc(-n4ncc5cc(C(C)(C)C)cc(F)c5c4=O)c3CO)cn(C)c2=O)nc1 [Compound 104, (S)-6-tert-butyl-8-fluoro-2-(5-fluoro-2-(hydroxymethyl)-3-(1-methyl-5-(5-(2-methyl-4-(oxetan-3-yl)piperazin-1-yl)pyridin-2-ylamino)-6-oxo-1,6-dihydropyridin-3-yl)phenyl)phthalazin-1(2H)-one]	32.9

same assay, conditions: human whole blood activated with goat F(ab')2 anti-human IgM, 20 hours; CD69 on CD20 positive cells by FACS; Table 2

Structure (SMILES)	CD69 Hu Blood FACS (IC70) [nM]
Cn1cc(-c2ccnc(-n3ncc4cc(C(C)(C)C)cc(F)c4c3=O)c2CO)cc(Nc2cc3n(n2)CCOC3)c1=O [Compound 131, 6-tert-butyl-2-[4-[5-(6,7-dihydro-4H-pyrazolo[5,1-c][1,4]oxazin-2-ylamino)-1-methyl-6-oxo-3-pyridyl]-3-(hydroxymethyl)-2-pyridyl]-8-fluoro-phthalazin-1-one]	17.1
Cc1cc(Nc2cc(-c3ccnc(-n4ncc5cc(C(C)(C)C)cc(F)c5c4=O)c3CO)nn(C)c2=O)nn1C [Compound 127, 6-tert-butyl-2-[4-[5-[(1,5-dimethylpyrazol-3-yl)amino]-1-methyl-6-oxo-pyridazin-3-yl]-3-(hydroxymethyl)-2-pyridyl]-8-fluoro-phthalazin-1-one]	115
Cn1cc(-c2ccnc(-n3ncc4cc(C(C)(C)C)cc(F)c4c3=O)c2CO)cc(Nc2cc3n(n2)CCN(CC(F)(F)F)C3)c1=O [Compound 134, 6-tert-butyl-8-fluoro-2-[3-(hydroxymethyl)-4-[1-methyl-6-oxo-5-[[5-(2,2,2-trifluoroethyl)-6,7-dihydro-4H-pyrazolo[1,5-a]pyrazin-2-yl]amino]-3-pyridyl]-2-pyridyl]phthalazin-1-one]	21.6
CCc1cc(Nc2cc(-c3ccnc(-n4ncc5cc(C(C)(C)C)cc(F)c5c4=O)c3CO)cn(C)c2=O)nn1C [Compound 122, 6-tert-butyl-2-[4-[5-[(5-ethyl-1-methyl-pyrazol-3-yl)amino]-1-methyl-6-oxo-3-pyridyl]-3-(hydroxymethyl)-2-pyridyl]-8-fluoro-phthalazin-1-one]	37.5
COCCN1CCn2nc(Nc3cc(-c4ccnc(-n5ncc6cc(C(C)(C)C)cc(F)c6c5=O)c4CO)cn(C)c3=O)cc2C1 [Compound 133, 6-tert-butyl-8-fluoro-2-[3-(hydroxymethyl)-4-[5-[[5-(2-methoxyethyl)-6,7-dihydro-4H-pyrazolo[1,5-a]pyrazin-2-yl]amino]-1-methyl-6-oxo-3-pyridyl]-2-pyridyl]phthalazin-1-one]	14.5
C[C@H]1COCCN1C(=O)c1ccc(Nc2cc(-c3ccnc(-n4ncc5cc(C(C)(C)C)cc(F)c5c4=O)c3CO)cn(C)c2=O)nc1 [Compound 136, 6-tert-butyl-8-fluoro-2-[3-(hydroxymethyl)-4-[1-methyl-5-[[5-[(3S)-3-methylmorpholine-4-carbonyl]-2-pyridyl]amino]-6-oxo-3-pyridyl]-2-pyridyl]phthalazin-1-one]	14.5
Cn1cc(-c2ccnc(-n3ncc4cc(C(C)(C)C)cc(F)c4c3=O)c2CO)cc(Nc2cc3n(n2)CCN(CC(F)F)C3)c1=O [Compound 135, 6-tert-butyl-2-[4-[5-[[5-(2,2-difluoroethyl)-6,7-dihydro-4H-pyrazolo[1,5-a]pyrazin-2-yl]amino]-1-methyl-6-oxo-3-pyridyl]-3-(hydroxymethyl)-2-pyridyl]-8-fluoro-phthalazin-1-one]	20
COCc1cc(Nc2cc(-c3ccnc(-n4ncc5cc(C(C)(C)C)cc(F)c5c4=O)c3CO)cn(C)c2=O)nn1C [Compound 143, 6-tert-butyl-8-fluoro-2-[3-(hydroxymethyl)-4-[5-[[5-(methoxymethyl)-1-methyl-pyrazol-3-yl]amino]-1-methyl-6-oxo-3-pyridyl]-2-pyridyl]phthalazin-1-one]	13.1
CCn1cc(Nc2nc(-c3ccnc(-n4ncc5cc(C(C)(C)C)cc(F)c5c4=O)c3CO)cn(C)c2=O)cn1 [Compound 123, 6-tert-butyl-2-[4-[6-[(1-ethylpyrazol-4-yl)amino]-4-methyl-5-oxo-pyrazin-2-yl]-3-(hydroxymethyl)-2-pyridyl]-8-fluoro-phthalazin-1-one]	156
Cn1cc(-c2ccnc(-n3ncc4cc(C(C)(C)C)cc(F)c4c3=O)c2CO)cc(Nc2ccncn2)c1=O [Compound 113, 6-tert-butyl-8-fluoro-2-[3-(hydroxymethyl)-4-[1-methyl-6-oxo-5-(pyrimidin-4-ylamino)-3-pyridyl]-2-pyridyl]phthalazin-1-one]	82.3
Cc1nccc(Nc2cc(-c3ccnc(-n4ncc5cc(C(C)(C)C)cc(F)c5c4=O)c3CO)cn(C)c2=O)n1 [Compound 114, 6-tert-butyl-8-fluoro-2-[3-(hydroxymethyl)-4-[1-methyl-5-[(2-methylpyrimidin-4-yl)amino]-6-oxo-3-pyridyl]-2-pyridyl]phthalazin-1-one]	11.4
Cn1cc(-c2ccnc(-n3ncc4cc(C(C)(C)C)cc(F)c4c3=O)c2CO)cc(Nc2cc[nH]n2)c1=O [Compound 152, 6-tert-butyl-8-fluoro-2-[3-(hydroxymethyl)-4-[1-methyl-6-oxo-5-(1H-pyrazol-3-ylamino)-3-pyridyl]-2-pyridyl]phthalazin-1-one]	45.9
CCn1ccc(Nc2cc(-c3ccnc(-n4ncc5cc(C(C)(C)C)cc(F)c5c4=O)c3CO)cn(C)c2=O)n1 [Compound 142, 6-tert-butyl-2-[4-[5-[(1-ethylpyrazol-3-yl)amino]-1-methyl-6-oxo-3-pyridyl]-3-(hydroxymethyl)-2-pyridyl]-8-fluoro-phthalazin-1-one]	168
Cn1cc(-c2ccnc(-n3ncc4cc(C(C)(C)C)cc(F)c4c3=O)c2CO)cc(Nc2cnn(C(F)F)n2)c1=O [Compound 159, 6-tert-butyl-2-[4-[5-[[2-(difluoromethyl)triazol-4-yl]amino]-1-methyl-6-oxo-3-pyridyl]-3-(hydroxymethyl)-2-pyridyl]-8-fluoro-phthalazin-1-one]	208
CN1CCc2nc(Nc3cc(-c4ccnc(-n5ncc6cc(C(C)(C)C)cc(F)c6c5=O)c4CO)cn(C)c3=O)sc2C1 [Compound 115, 6-tert-butyl-8-fluoro-2-[3-(hydroxymethyl)-4-[1-methyl-5-[(5-methyl-6,7-dihydro-4H-thiazolo[5,4-c]pyridin-2-yl)amino]-6-oxo-3-pyridyl]-2-pyridyl]phthalazin-1-one]	73.2
CCc1cc(Nc2cc(-c3ccnc(-n4ncc5cc(C(C)(C)C)cc(F)c5c4=O)c3CO)cn(C)c2=O)no1 [Compound 158, 6-tert-butyl-2-[4-[5-[(5-ethylisoxazol-3-yl)amino]-1-methyl-6-oxo-3-pyridyl]-3-(hydroxymethyl)-2-pyridyl]-8-fluoro-phthalazin-1-one]	66.7
